From patent US9757428B2, “Designed peptides for tight junction barrier modulation” (University of Rochester, priority 2013, dated 2017)
Where no end group is shown, it is not given here.

Key:
[1] = tested on: 16HBE TJs; experiment: Transepithelial electrical resistance (TER) of 16HBE tight junction barrier, peptides applied apically; assay type: cell-based, Human; settings: for effect of unrelated peptides on TER: 2-12 μM; for drop in TER: 2.4 μM peptide; for recovery of barrier function (TER) after peptide removal: 0.024 to 12 μM, washout and further 24 h incubation; for barrier disruption by labeled peptides, measured by decreased TER: representative experiment (n=2)
Procedure: Before use, peptide fibrils were prepared in sterile, filtered phosphate buffered saline containing 0.12% Pluronic F-127® by sonication at 55° C. for 20 minutes. Peptide concentrations were determined by BCA assay (Pierce). 20× peptide stocks were prepared in 0.12% pluronic F-127/PBS, then diluted 20× into phosphate buffer, PBS or DMEM containing 1% heat-inactivated fetal bovine serum and incubated at 37° C. for 18-24 hours before cell exposure or biophysical analysis, maintaining a constant surfactant concentration (0.006% Pluoronic® F127) for vehicle and peptide samples.
(§1) Human bronchial epithelial cells (16HBE) were grown on collagen-coated polystyrene in DMEM containing 10% heat inactivated fetal bovine serum, 10 mM HEPES, penicillin, streptomycin, and amphotericin with fresh media every 2-3 days. Cells were plated at the indicated density and grown for the indicated period. Peptides were diluted 20× into DMEM (Gibco #31053 containing 2 mM L-glutamine but lacking phenol red) containing 1% heat-inactivated fetal bovine serum and incubated at 37° C. for 18 hours before exposure. Pluronic F-127 concentrations (0.006% in cell culture media) were consistent between vehicle controls and peptide-containing samples. Cells were acclimated to the same media for 18 hours before peptide exposure.
(§2) For transepithelial electrical resistance (TER) and permeability experiments, the results of which are shown in FIGS. 4A-4B, respectively, cells were plated at a density of 75,000 per 0.33 cm^2 transwell (Corning TW, […], polyester) and grown for 5-6 days before acclimation/peptide exposure. TER measurements were taken with chopstick electrodes using a World Precision Instruments voltohmeter, and are expressed as the measured (cellular resistance—resistance of a TW insert with no cells)/surface area of the TW insert. TER was measured before peptide exposure (time=0) and at the indicated time points thereafter. After the 24 hour measurement, a control TW was lysed with 1% Triton X-100. For permeability flux assay, 1/10 volume of 0.2% sodium fluorescein or a mixture of 40 kD FITC-dextran (600 μg/mL final apical concentration) and Alexafluor®-568 labeled Synagis monoclonal antibody was added to the apical chamber and cells were incubated at 37° C. for 30 minutes or 18 hours. Synagis monoclonal antibody was labeled with Alexafluor®-568-succinimidyl ester according to the manufacturer's instructions, unreacted fluorophor removed using centrifugal filtration, and labeled antibody resuspended in PBS containing FITC-labeled 40 kD dextran. Fluorescence in the basolateral media was read in a Tecan M1000 fluorescence plate reader using Greiner μ-clear bottom 384-well plates (λex=494 nm and λem=512 nm for fluorescein and FITC-dextran and λex=578 nm and λem=605 nm for Alexafluor®-568 using a 10 nm slit width). Error is presented as the standard error of the mean, and significance relative to the vehicle control indicated where P<0.05 using a two-tailed t-test. For TER and fluorescein permeability experiments, n=8. For barrier recovery after peptide washout and FD-40 and Alexafluor®-labeled monoclonal antibody (“AF-mAb”) permeability, n=4.
Human bronchial epithelial cells (16HBE) were used to model TJ barrier function. 16HBE cells develop a TJ barrier (transepithelial electrical resistance, TER=800-1500 Ω*cm^2 in 10% heat-inactivated calf serum) that persists for 14 days. 16HBE cells serve as a more robust epithelial TJ barrier model than primary human keratinocytes, which achieve varying degrees of terminal differentiation (e.g. TJ barrier function) and this declines within 24 hours. In the low serum media used for peptide exposure, 16HBE cells achieved 350-500 Ω*cm^2 TER which was stable for 3-4 days. Cell surface expression of Cldn1, Cldn4, Ocln, and ZO-1 were consistently observed by immunofluorescence staining (FIGS. 2A-2B).

[2] = for comparison; cited from earlier work
[3] = tested on: 16HBE cells; experiment: WST1 cytotoxicity assay in 16HBE cells; assay type: cell-based, Human; settings: for WST1 metabolism (cytotoxicity) of equilibrated peptides: 16HBE sub-confluent, 0.024-12 μM, 1, 4, 12 or 24 hour exposure; for concentration of freshly diluted peptide at which cytotoxicity was observed (WST1): 16HBE, stocks diluted and added without incubation, 12 h exposure
Procedure: For cytotoxicity measurements, cells were plated with a density of 7,500 per well in a 96-well plate and grown for one day before acclimation in DMEM containing 1% heat-inactivated fetal bovine serum. Cells were exposed to vehicle or peptide for 4, 12 or 24 hours. Control cells were lysed with 1% Triton X-100 for 15 minutes as a negative control. 10× WST1 stock (Clontech) was added to each well, and cells incubated for 12 minutes at 37° C. Media was removed and WST1 absorbance immediately read on a Perkin Elmer UV/Vis plate reader (WST1 A450−background A620). Error is presented as the standard error of the mean, and significance relative to the untreated control indicated (P<0.05). For cytotoxicity experiments, n=4. Representative data is presented.

[4] = tested on: influenza hemagglutinin (HA); experiment: Intranasal immunization with influenza hemagglutinin (HA); settings: mice; for serum antibody titers to HA: day 18, 28 and 35; for HA-specific antibodies (IgG and IgA) in bronchial lavage: day 48
Procedure: Immunization experiments with influenza hemagglutinin were carried out as follows. Mice (4 mice per group) were treated in the nasal cavity with vehicle alone (0.006% Pluronic F127 in saline), vehicle plus influenza hemagglutinin (HA), or vehicle plus HA plus a permeabilizing agent (peptides 1A or 2A, or semen-derived enhancer of virus infection (SEVI)). Antibody titers to HA in serum were assessed at day 18, 28, and 35 after treatment, and HA-specific IgG and IgA were determined in bronchial lavage at day 48 post treatment.

[5] = tested on: 16HBE TJs; experiment: Permeability flux assay (sodium fluorescein, FITC-dextran FD-40, labeled Synagis mAb) across 16HBE cultures; assay type: cell-based, Human; settings: for increase in FITC-dextran 40 kDa (FD-40) permeability / increase in fluorescein (0.4 kDa) permeability: 24 hours exposure, relative to vehicle
Procedure: as §1, §2

[6] = tested on: Cldn1 and Ocln localization in 16HBE cultures; experiment: Immunofluorescence of TJ proteins (Cldn1, Ocln) and labeled peptides in 16HBE cultures; assay type: cell-based, Human; settings: for Cldn1 and Ocln localization: 12 hours after exposure; for co-localization of labeled peptide with endogenous Cldn1: 2.4 μM, 4 hours exposure
Procedure: For immunohistochemical labeling, cells were plated at a density of 1.2×10^5 cells per 1.2 cm^2 coverslip in a 12-well plate and cultured in DMEM containing 10% heat-inactivated fetal bovine serum for 4-5 days. One day before peptide exposure, media was changed to DMEM/1% serum. Cells were exposed to peptide for 4 or 12 hours at 37° C. Cover slips were washed three times with PBS containing calcium (Gibco), fixed in cold methanol and blocked with 1% bovine serum albumin before staining Fluorophor was conjugated to propargyl-glycine labeled peptides using a ClickIt EdU kit according to the manufacturer's instructions (omitting cell exposure to EdU). For immunofluorescent staining, cells were incubated for one hour with primary antibodies (1:500 polyclonal anti-claudin 1 antibody and 1:400 monoclonal anti-occludin), washed with PBS and stained with Alexafluor®-488 anti-rabbit and Alexafluor®-568 anti-mouse secondary antibodies (1:1000). […] Coverslips were mounted in Vectastain containing DAPI and imaged on an Olympus BX60 fluorescence microscope. Cldn1 and Ocln images were taken using SPOT software with no further digital manipulation.

[7] = tested on: nasal cavity; experiment: Luciferase permeability experiment in mouse nasal cavity; assay type: in vivo; settings: mice, intranasal peptide, luciferase applied after 12 or 24 hours
Procedure: Luciferase permeability experiments were carried out as follows. […] After 12 or 24 hours, a solution of 10 micrograms luciferase was applied. Mice were then imaged at various time points to determine the amount of luciferase remaining in the nasal cavity.

[8] = tested on: Caco-2, HEK-293, and rat perineural TJ barriers; settings: Caco-2, HEK-293, rat perineural in vivo; cited from earlier work
[9] = tested on: T84 (transplantable human carcinoma) cells; settings: cited from earlier work

With “Aβ40: unrelated peptide tested in the same concentration range [reference compound]” the “effect of unrelated peptides on TER” value ([1]; 16HBE) was “did not decrease TER”.
In the case of “Aβ42: Amyloid Beta-Peptide 1-42 [reference compound]”, the “critical concentration (Cr)” value [2] is given as “about 1 μM” and the TJ disruption ([1]; 2.4 μM) is given as “disrupt TJs, but to a lesser extent than peptides 1a and 2a”.
In the case of “FKFEFKFE-NH2 [(FKFE)2, unrelated peptide tested in the same concentration range, reference compound]”, the “effect of unrelated peptides on TER” value ([1]; 16HBE) is reported as “did not decrease TER”.
With “H-SILTGVSTLDQSLKQLSNFSQAVSTQSSR-NH2 [Peptide 2a]” the “WST1 metabolism (cytotoxicity) of equilibrated peptides” value [3] was “No alterations in WST1 metabolism”, the “concentration of freshly diluted peptide at which cytotoxicity was observed (WST1)” value [3] was 200 nM and the “serum antibody titers to HA” value [4] was “trend of enhancement”. The “HA-specific antibodies (IgG and IgA) in bronchial lavage” value [4] was “trend of enhancement”, the “drop in TER” value ([1]; 16HBE, 24 hours) was 80±2.4% and the “decrease in TER” value ([1]; 16HBE, 12 μM peptide, 24 hours) was 92±1.6%. For the same substance, the “recovery of barrier function (TER) after peptide removal” value ([1]; 16HBE) was “barrier function recovers”, the “enhancement of labeled therapeutic antibody (Synagis, 168 kD) penetration” value (shortened to “enhancement”) ([5]; 2.4 μM peptide) was 4.9±0.4 fold and the “increase in FITC-dextran 40 kDa (FD-40) permeability” value (from here on “increase in FITC-dextran 40 kDa”) ([5]; 2.4 μM peptide) was 25.3±1.6 fold. The “increase in fluorescein (0.4 kDa) permeability” value (“increase in fluorescein” below) ([5]; 2.4 μM peptide) was 5.6±0.4 fold, the “enhancement” value ([5]; 12 μM peptide) was 5.6±0.9 fold and the “increase in FITC-dextran 40 kDa” value ([5]; 12 μM peptide) was 30.5±3.0 fold. The “increase in fluorescein” value ([5]; 12 μM peptide) was 16.4±2.2 fold and the “Cldn1 and Ocln localization” value [6] was “disturbed”.
For “H-SSVSQSTGQIQSKVFDSLLNLSSTLQATR-NH2 [Peptide 1a]”, the “luciferase lost from the nasal cavity” value [7] was “trend of higher amounts of luciferase lost from the nasal cavity”, the “WST1 metabolism (cytotoxicity) of equilibrated peptides” value [3] was “No alterations in WST1 metabolism” and the “concentration of freshly diluted peptide at which cytotoxicity was observed (WST1)” value [3] was 1200 nM. For the same substance, the “serum antibody titers to HA” value [4] was “trend of enhancement”, the “HA-specific antibodies (IgG and IgA) in bronchial lavage” value [4] was “trend of enhancement” and the “drop in TER” value ([1]; 16HBE, 24 hours) was 65.9±6.9%. For the same substance, the “time to statistically significant (P<0.05) decrease in TER” value ([1]; 16HBE, 12 μM peptide) was no more than 8 h, the “recovery of barrier function (TER) after peptide removal” value ([1]; 16HBE) was “barrier function recovers” and the “lowest concentration giving a statistically significant (P<0.05) decrease in TER” value ([1]; 16HBE, by 24 hours) was 240 nM. The “enhancement” value ([5]; 2.4 μM peptide) was 2.5±0.2 fold, the “increase in FITC-dextran 40 kDa” value ([5]; 2.4 μM peptide) was 11.2±0.9 fold and the “increase in fluorescein” value ([5]; 2.4 μM peptide) was 4.1±0.9 fold. The “enhancement” value ([5]; 12 μM peptide) was 3.2±0.4 fold, the “increase in FITC-dextran 40 kDa” value ([5]; 12 μM peptide) was 16.8±1.9 fold and the “increase in fluorescein” value ([5]; 12 μM peptide) was 6.7±1.3 fold. For the same substance, the “Cldn1 and Ocln localization” value [6] was “disturbed”.
In the case of “Rat Cldn1 (53-81, C54,64S) peptide: rat claudin-1 peptide with Cys to Ser, of Zwanziger et al. (SSVSQSTGQIQSKVFDSLLNLNSTLQATR; UniProt P56745 53-81, looked up, variant C54S C64S)”, the “concentration disrupting TJ barriers” value [8] is listed as 200 to 300 µM.
With “SILTGVSTLDQSLKQLSNFSQAVSTQSSR [Peptide 2b, labeled scrambled peptide 2 with N-terminal biotin-N-propargyl glycine tag]” the “barrier disruption by labeled peptides, measured by decreased TER” value ([1]; 16HBE) was “cause disruption of barrier” and the “co-localization of labeled peptide with endogenous Cldn1” value [6] was “co-localize with endogenous Cldn1”.
With “SSVSQSTGQIQSKVFDSLLNLSSTLQATR [Peptide 1b, labeled peptide 1 with N-terminal biotin-N-propargyl glycine tag]” the “barrier disruption by labeled peptides, measured by decreased TER” value ([1]; 16HBE) was “cause disruption of barrier” and the “co-localization of labeled peptide with endogenous Cldn1” value [6] was “co-localize with endogenous Cldn1”.
For “rat Cldn1 (53-80) peptide: rat claudin-1 extracellular loop peptide of Mrsny et al. (SCVSQSTGQIQCKVFDSLLNLNSTLQAT; UniProt P56745 53-80, looked up, fragment)”, the “concentration able to disrupt intact TJs” value [9] is given as 200 µM and the “concentration shown to inhibit calcium-induced TJ formation” value [9] is given as 25 µM.
